Experimental data published in patent US10487313B2, “Efficient induction of definitive endoderm from pluripotent stem cells” (Novo Nordisk A/S, priority 2011, dated 2019).

Tests used:
Assay type in all cases: cell-based, human
[1] = system: hES cells (SA121) in mTeSR culture system; experiment: Immunostainings and OCT4/SOX17+ cell quantification in the mTeSR system; conditions: Chir 7 μM or D'Amour
Description: hES cells (SA121) were cluster passaged from feeders (MEFs) to Matrigel (BD Biosciences) in mTeSR1 media ([…]) and passaged further with Dispase (BD Biosciences) according to the culture system protocol. DE was initiated once clusters started to touch each other Confluent cultures were washed once in RPMI1640 (Invitrogen) before 24 hour pre-treatment with 0,5-7μM CHIR99021 (Stemgent) in RPMI. Control cells were left untreated in RPMI and D'Amour cells were either left in RPMI or treated with AA (Peprotech)+Wnt3a (R&D Systems) without pre-treatment depending on experimental setup. After 24 hours, pretreated and control cells were washed once with RPMI before adding 100 ng/ml AA in RPMI. D'Amour cells were also treated with 100 ng/ml AA but with 0,2% FBS instead of B27. 24 h later, 2% B27 (Invitrogen) was added to the AA media for 2-3 d. Control cells were treated with B27 to prevent cell death and D'Amour cells with 2% FBS according to published protocol. Media was changed every day. Cells were washed in PBS+/+ and fixed in 4% formaldehyde for 30 min (10% formaline, VWR). The cells were then washed again three times in PBS and left in PBS (4° C.) until staining. Fixed cells were washed with PBS once, then permeabilized with 0.5% Triton X-100 in PBS for 6 min, washed in PBS and blocked with TNB buffer (0.1 M Tris-HCL pH 7.5, 0.15 M NaCl, 0.5% Blocking Reagent (Perkin Elmer)) for 30 min. Primary antibodies (goat-anti-SOX17 (AF1924, RnD Systems); goat-anti-Brachyury (AF2085, RnD Systems); mouse-anti-OCT4 (sc5279, SantaCruz Biotechnology); goat-anti-PDX1 (AB47383, Abcam)) were added in 0.1% TritonX-100+PBS for 1 h in RT or 4° C. O/N. After a thorough washing step in PBS, secondary antibodies were added together with DAPI in 0.1% Triton X-100+PBS for 45 min at RT, washed thoroughly in PBS and left in PBS until photodocumentation.

chIPS4 cells = experiment: OCT4 and SOX17 protein ICC quantification during DE induction, DEF culture system; conditions: for OCT4 ICC % positive cells / SOX17 ICC % positive cells: CHIR 3 μM D1 then Activin A D2-3, or D'Amour protocol
Description: Human embryonic stem (hES) cells SA121 and chIPS4 (Cellartis) were grown on human fibronectin (Sigma) in DEF culture media (Cellartis) with 30 ng/ml bFGF (Invitrogen) and 10 ng/ml Noggin (Peprotech) in 6-96 well plates. Cells were single cell passaged with Rock inhibitor Y-27632 (Calbiochem) and seeded at a density of 40000 cells/cm2 for experiments. Experiments were initiated 4 d after passage.
(§1) Confluent cultures were washed once in RPMI1640 (Invitrogen) before 24 hour pre-treatment with 0,5-7μM CHIR99021 (Stemgent) in RPMI. Control cells were left untreated in RPMI and D'Amour cells were either left in RPMI or treated with AA (Peprotech)+Wnt3a (R&D Systems) without pre-treatment depending on experimental setup.
After 24 hours, pretreated and control cells were washed once with RPMI before adding 100 ng/ml AA in RPMI. D'Amour cells were also treated with 100 ng/ml AA but with 0,2% FBS instead of B27. 24 h later, 2% B27 (Invitrogen) was added to the AA media for 2-3 d. Control cells were treated with B27 to prevent cell death and D'Amour cells with 2% FBS according to published protocol. Media was changed every day.
• Day 1: Cells were washed carefully in prewarmed (37° C.) RPMI before starting the differentiation. Day1 medium was premixed (CHIR 3 μM in prewarmed RPMI+PEST) and gently added to cell culture. Volumes were adjusted according to plate formats. • Day 2: Cells were washed carefully in prewarmed (37° C.) RPMI before media change. Day2 medium was premixed (100 ng/ml Activin A in prewarmed RPMI+0.1% PEST) and gently added to cell culture. • Day 3: Day3&4 mediums were premixed (100 ng/ml Activin A and 2% B27 in prewarmed RPMI+0.1% PEST) and gently added to cell culture. • Day 4: DE was harvested or reseeded for further differentiation. Cells were checked under the microscope every day.
Cells were washed in PBS+/+ and fixed in 4% formaldehyde for 30 min (10% formaline, VWR). The cells were then washed again three times in PBS and left in PBS (4° C.) until staining. Fixed cells were washed with PBS once, then permeabilized with 0.5% Triton X-100 in PBS for 6 min, washed in PBS and blocked with TNB buffer (0.1 M Tris-HCL pH 7.5, 0.15 M NaCl, 0.5% Blocking Reagent (Perkin Elmer)) for 30 min. Primary antibodies (goat-anti-SOX17 (AF1924, RnD Systems); goat-anti-Brachyury (AF2085, RnD Systems); mouse-anti-OCT4 (sc5279, SantaCruz Biotechnology); goat-anti-PDX1 (AB47383, Abcam)) were added in 0.1% TritonX-100+PBS for 1 h in RT or 4° C. O/N. After a thorough washing step in PBS, secondary antibodies were added together with DAPI in 0.1% Triton X-100+PBS for 45 min at RT, washed thoroughly in PBS and left in PBS until photodocumentation.
Undifferentiated ChIPS4 cells (d0) were either pre-treated for 24 h with CHIR (3 μM) or directly exposed to AA (100 ng/ml) and Wnta3a (25 ng/ml) according to Kroon et al 2008. The cells were then washed and AA was added for 1-4 d.
In addition, the most striking difference between the protocols could be seen in terms of morphology with a much higher degree of cell death during D'Amour treatment. To further strengthen the results, a quantification of SOX17 protein expression was thus performed. chIPS4 cells treated with either the CHIR- or D'Amour-protocol were fixed and stained using a SOX17-specific ab and the images were quantified in respect of total amounts and the percentage of SOX17-positive cells. […] In addition, the total amount of CHIR pre-treated cells was 25% higher than the number seen after D'Amour treatment.

SA121 and chIPS cells = experiment: CHIR dose dependency: cell survival after titration and AA treatment; conditions: then 2 d AA
Description: Brachyury expression was analysed after 24 h treatment in SA121 (FIG. 7A) and chIPS cells (FIG. 7C). SOX17 expression was analysed D3 in SA121 (FIG. 7B) and chIPS cells (FIG. 7D)).
as §1
Chir was titrated at concentrations between 1-7 uM and analyzed after 24 h Chir treatment (D1) and after 2 d of following AA treatment (D3).

## Cc1c[nH]c(-c2cnc(NCCNc3ccc(C#N)cn3)nc2-c2ccc(Cl)cc2Cl)n1 [CHIR, CHIR99021]
[1]; D3, Exp ME16b
  Oct4+ cell quantification: 6.97
  Sox17+ cell quantification: 62.62
[1]; D3, Exp ME18b
  Oct4+ cell quantification: 2.53
  Sox17+ cell quantification: 82.87
[1]; D3, Exp ME21a
  Oct4+ cell quantification: 0.95
  Sox17+ cell quantification: 91.36
[1]; D3, Mean of three experiments
  Oct4+ cell quantification: 3.5
  Sox17+ cell quantification: 79.0
chIPS4 cells; chIPS4, D1
  OCT4 ICC % positive cells: 91.2%
  SOX17 ICC % positive cells: 0.9%
chIPS4 cells; chIPS4, D2
  OCT4 ICC % positive cells: 3.1%
  SOX17 ICC % positive cells: 68.8%
chIPS4 cells; chIPS4, D3
  OCT4 ICC % positive cells: 3.7%
  SOX17 ICC % positive cells: 91.5%
chIPS4 cells; chIPS4, d3, image quantification
  total amount of cells higher than after D'Amour treatment: 25%
SA121 and chIPS cells; CHIR 7 uM 24 h
  cell survival D3: did not survive d3
SA121 and chIPS cells; CHIR 0.5-1 uM 24 h
  cell survival D3: did not survive d3
